According to article PMC6934184, “Selective DNA-PKcs inhibition extends the therapeutic index of localized radiotherapy and chemotherapy” (The Journal of Clinical Investigation, 2019):

Target: T1, TLK2 (Homo sapiens, UniProt Q86UE8)
T1 construct: purchased Thermo Fisher Scientific (Life Technologies) SelectScreen
Assay: SelectScreen LanthaScreen
Assay type: binding
Settings: read-out: % displacement
Outline: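 Percent values come from Thermo SelectScreen profiling of NU5455, combining activity and binding assays. CSF1R was run in Z'LYTE format at Km app ATP, and CAMK1 in Adapta format with ATP listed at 10.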

T1 sequence (Q86UE8 whole entry): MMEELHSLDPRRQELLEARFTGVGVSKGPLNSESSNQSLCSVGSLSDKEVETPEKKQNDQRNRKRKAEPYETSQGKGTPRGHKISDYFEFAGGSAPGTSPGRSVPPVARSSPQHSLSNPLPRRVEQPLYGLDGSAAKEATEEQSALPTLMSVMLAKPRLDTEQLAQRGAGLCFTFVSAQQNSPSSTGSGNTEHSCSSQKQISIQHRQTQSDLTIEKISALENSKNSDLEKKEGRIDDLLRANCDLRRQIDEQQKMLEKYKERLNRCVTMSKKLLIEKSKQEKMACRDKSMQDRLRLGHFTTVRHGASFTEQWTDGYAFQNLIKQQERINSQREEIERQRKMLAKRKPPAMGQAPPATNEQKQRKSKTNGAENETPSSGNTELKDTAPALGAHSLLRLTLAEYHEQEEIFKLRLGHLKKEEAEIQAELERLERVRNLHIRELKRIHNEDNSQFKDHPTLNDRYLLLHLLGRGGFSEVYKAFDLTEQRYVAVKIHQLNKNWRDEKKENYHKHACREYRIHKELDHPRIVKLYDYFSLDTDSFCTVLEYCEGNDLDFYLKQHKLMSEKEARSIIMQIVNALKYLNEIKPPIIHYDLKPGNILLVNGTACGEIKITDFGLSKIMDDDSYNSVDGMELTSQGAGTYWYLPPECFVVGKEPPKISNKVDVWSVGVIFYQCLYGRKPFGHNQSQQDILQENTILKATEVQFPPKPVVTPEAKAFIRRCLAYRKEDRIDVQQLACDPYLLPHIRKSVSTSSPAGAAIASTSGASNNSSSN

Structure (SMILES): CN(C(=O)CN1CCOCC1)c1ccc2sc3c(-c4cccc5c(=O)cc(N6CC7CCC(C6)O7)oc45)cccc3c2c1 [NU5455]
- inhibition at 1 µM: -0.3%
